Reference: PubChem BioAssay (NCI)
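96-well plates; 48 h exposure; 5 concentrations. Endpoints by linear interpolation between flanking doses. Not reached: highest tested concentration assigned. TGI: concentration producing complete growth inhibition.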

How the values were obtained:
Assay in all cases: inhibition of tumour cell growth, NCI panel, 48 h
[1] = test system: DMS 114 small cell lung
[2] = test system: HT29 colon
[3] = test system: U251 CNS
[4] = test system: SF-295 CNS
[5] = test system: SW-620 colon
[6] = test system: COLO 205 colon
[7] = test system: UACC-257 melanoma
[8] = test system: HL-60(TB) leukemia
[9] = test system: LOX IMVI melanoma
[10] = test system: OVCAR-5 ovarian
[11] = test system: A549 NSCLC
[12] = test system: NCI-H460 lung
[13] = test system: KM12 colon
[14] = test system: UO-31 renal
[15] = test system: HCC-2998 colon
[16] = test system: RPMI-8226 leukemia
[17] = test system: RXF-631 renal
[18] = test system: IGROV1 ovarian
[19] = test system: NCI-H23 lung
[20] = test system: SNB-19 CNS
[21] = test system: SK-MEL-28 melanoma
[22] = test system: SF-539 CNS
[23] = test system: MALME-3M melanoma
[24] = test system: SN12C renal
[25] = test system: SK-OV-3 ovarian
[26] = test system: SNB-78 CNS
[27] = test system: UACC-62 melanoma
[28] = test system: SK-MEL-2 melanoma
[29] = test system: LXFL 529 NSCLC
[30] = test system: DMS 273 small cell lung
[31] = test system: M14 melanoma
[32] = test system: OVCAR-4 ovarian
[33] = test system: HOP-92 NSCLC
[34] = test system: CCRF-CEM leukemia
[35] = test system: CAKI-1 renal
[36] = test system: HCT-116 colon
[37] = test system: K-562 leukemia
[38] = test system: SNB-75 CNS
[39] = test system: OVCAR-8 ovarian
[40] = test system: SR leukemia
[41] = test system: TK-10 renal
[42] = test system: A498 renal
[43] = test system: ACHN renal
[44] = test system: RXF 393 renal
[45] = test system: HOP-62 NSCLC
[46] = test system: M19-MEL melanoma
[47] = test system: DLD-1 colon
[48] = test system: OVCAR-3 ovarian
[49] = test system: NCI-H226 lung
[50] = test system: SF-268 CNS
[51] = test system: NCI-H522 lung
[52] = test system: SK-MEL-5 melanoma
[53] = test system: HOP-18 NSCLC
[54] = test system: HCT-15 colon
[55] = test system: MOLT-4 leukemia
[56] = test system: KM20L2 colon
[57] = test system: 786-0 renal
[58] = test system: EKVX NSCLC

With `CC1OC(n2cc(F)c(=O)[nH]c2=O)C=CC1=O` (centres undefined) the TGI [1] was 32.3 µM, the TGI [2] was 49.3 µM and the TGI [3] was 27.9 µM. It also gave a TGI [4] of 31 µM, a TGI [5] of 38.6 µM and a TGI [6] of 89.1 µM. The TGI [7] was 32.2 µM, the TGI [8] was 70.3 µM and the TGI [9] was 28.7 µM. For the same compound, the TGI [10] was 30 µM, the TGI [11] was > 100 µM and the TGI [12] was 56.8 µM. For the same compound, the TGI [13] was 31.5 µM, the TGI [14] was 30.3 µM and the TGI [15] was 43.8 µM. For the same compound, the TGI [16] was 93.2 µM, the TGI [17] was > 100 µM and the TGI [18] was > 100 µM. The TGI [19] was > 100 µM, the TGI [20] was 34.8 µM and the TGI [21] was 31.5 µM. The TGI [22] was 31 µM, the TGI [23] was 35.3 µM and the TGI [24] was 31.8 µM. For the same compound, the TGI [25] was 95.9 µM, the TGI [26] was 37.1 µM and the TGI [27] was 32.4 µM. The TGI [28] was 28.9 µM, the TGI [29] was 31.2 µM and the TGI [30] was 36.1 µM. It also gave a TGI [31] of 34.1 µM, a TGI [32] of 33.6 µM and a TGI [33] of 33.2 µM. The TGI [34] was 53 µM, the TGI [35] was 31.1 µM and the TGI [36] was 29.8 µM. The TGI [37] was > 100 µM, the TGI [38] was 32.5 µM and the TGI [39] was 47.9 µM. It also gave a TGI [40] of 55.8 µM, a TGI [41] of 30.7 µM and a TGI [42] of 36.9 µM. For the same compound, the TGI [43] was 31.9 µM, the TGI [44] was 30.4 µM and the TGI [45] was > 100 µM. The TGI [46] was 36.2 µM, the TGI [47] was 36 µM and the TGI [48] was 29.6 µM. It also gave a TGI [49] of 66.4 µM, a TGI [50] of 38.7 µM and a TGI [51] of 23.2 µM. The TGI [52] was 31.4 µM, the TGI [53] was 34.1 µM and the TGI [54] was 46.1 µM. The TGI [55] was 69.3 µM, the TGI [56] was 34.6 µM and the TGI [57] was 29.4 µM.
`COc1cc2c(cc1OC)/C(=C\c1ccccc1N)C(=O)OC2` was tested, and the TGI [1] was 34.7 µM, the TGI [2] was 30.4 µM and the TGI [3] was 32.6 µM. It also gave a TGI [58] of 44.2 µM, a TGI [4] of 29.3 µM and a TGI [5] of 13.9 µM. The TGI [6] was 28.8 µM, the TGI [7] was 34.3 µM and the TGI [8] was 17.6 µM. It also gave a TGI [9] of 4.18 µM, a TGI [10] of 35.4 µM and a TGI [11] of 60.1 µM. For the same compound, the TGI [12] was 33.5 µM, the TGI [13] was 31.3 µM and the TGI [14] was 32.7 µM. For the same compound, the TGI [15] was 47.2 µM, the TGI [16] was 10.3 µM and the TGI [17] was 23.5 µM. The TGI [18] was 36.7 µM, the TGI [19] was 42.7 µM and the TGI [20] was 32.5 µM. It also gave a TGI [21] of 41.5 µM, a TGI [22] of 31 µM and a TGI [23] of 29.1 µM. For the same compound, the TGI [24] was 31.4 µM, the TGI [25] was 55.7 µM and the TGI [27] was 32.2 µM. The TGI [28] was 26.4 µM, the TGI [29] was 17.7 µM and the TGI [30] was 25.5 µM. The TGI [31] was 55.4 µM, the TGI [32] was 29 µM and the TGI [33] was 27.6 µM. It also gave a TGI [34] of 7.06 µM, a TGI [35] of 27.1 µM and a TGI [37] of 16.1 µM. The TGI [38] was 24.9 µM, the TGI [41] was 35.2 µM and the TGI [43] was 34.7 µM. It also gave a TGI [44] of 12.9 µM, a TGI [45] of 45.4 µM and a TGI [46] of 39.2 µM. It also gave a TGI [47] of 29.3 µM, a TGI [48] of 35.7 µM and a TGI [50] of 75.4 µM. For the same compound, the TGI [51] was 3.47 µM, the TGI [52] was 32.6 µM and the TGI [53] was 26.8 µM. For the same compound, the TGI [54] was 27.2 µM, the TGI [55] was 8.24 µM and the TGI [56] was 43.4 µM. For the same compound, the TGI [57] was 9.96 µM.
